Like-named read-outs stand apart in the source and are kept apart here.
System: A2780 cells
Experiment: In-vitro cell proliferation assay (SRB, 72 hours)
Format: cell-based
Settings: Homo sapiens, A2780 cells, 72 hours, SRB, read-out: Cell Proliferation (IC50)

Row | IC50 (A2780, 72 h) [nM] | Compound | IC50 [nM]
1 | 2000 | CC(C)(C)OC(=O)N1CCC2(CC1)CC2CNC(=O)N1Cc2cn[nH]c2C1 (stereo not shown) [Example 274, tert-Butyl 2-[(4,6-dihydro-1H-pyrrolo[3,4-c]pyrazole-5-carbonylamino)methyl]-6-azaspiro[2.5]octane-6-carboxylate] | 
2 | 17.7 | CN1CCC(C)(CC(=O)N2CCC3(CC2)CC3CNC(=O)c2cc3ccncc3o2)CC1 (stereo not shown) [Example 275, N-([6-[2-(1,4-dimethylpiperidin-4-yl)acetyl]-6-azaspiro[2.5]octan-1-yl]methyl)furo[2,3-c]pyridine-2-carboxamide] | 
3 | 755 | O=C(NCC1CC12CCN(C(=O)Cc1cccnc1)CC2)c1cc2cnccc2[nH]1 (stereo not shown) [Example 277, N-[[6-[2-(3-pyridyl)acctyl]-6-azaspiro[2.5]octan-2-yl]methyl]-1H-pyrrolo[3,2-c]pyridine-2-carboxamide] | 
4 | 2000 | O=C(NCC1CC12CCN(C(=O)Cc1ccncc1)CC2)c1cc2cnccc2[nH]1 (stereo not shown) [Example 278, N-[[6-[2-(4-pyridyl)acetyl]-6-azaspiro[2.5]octan-2-yl]methyl]-1H-pyrrolo[3,2-c]pyridine-2-carboxamide] | 
5 | 6.83 | Cn1nnc(-c2ccc(C(=O)N3CCC4(CC3)CC4CNC(=O)c3cc4ccncc4o3)cc2)n1 (stereo not shown) [Example 280] | 
6 | 18.5 | Cc1cc(C)c(C(=O)N2CCC3(CC2)CC3CNC(=O)c2cc3ccncc3o2)cn1 (stereo not shown) [Example 281, N-[[6-(4,6-dimethylpyridine-3-carbonyl)-6-azaspiro[2.5]octan-2-yl)methyl]furo[2,3-c]pyridine-2-carboxamide] | 
7 |  | O=C(Cc1ncccn1)N1CCC2(CC1)CC2CNC(=O)N1Cc2ccncc2C1 (stereo not shown) [Example 286, N-[[6-(2-pyrimidin-2-ylacetyl)-6-azaspiro[2.5]octan-2-yl]methyl]-1,3-dihydropyrrolo[3,4-c]pyridine-2-carboxamide] | 27
8 | 12.1 | Cc1nn(C(C)(C)C)c(C)c1C(=O)N1CCC2(CC1)CC2CNC(=O)c1cc2ccncc2o1 (stereo not shown) [Example 294, N-[[6-(1-tert-butyl-3,5-dimethyl-pyrazole-4-carbonyl)-6-azaspiro[2.5]octan-2-yl]methyl]furo[2,3-c]pyridine-2-carboxamide] | 
9 | 0.944 | Cc1nn(Cc2ccccc2)c(C)c1C(=O)N1CCC2(CC1)CC2CNC(=O)c1cc2ccncc2o1 (stereo not shown) [Example 295, N-[[6-(1-benzyl-3,5-dimethyl-pyrazole-4-carbonyl)-6-azaspiro[2.5]octan-2-yl]methyl]furo[2,3-c]pyridine-2-carboxamide] | 
10 | 10.8 | Cn1nc(C(C)(C)C)cc1C(=O)N1CCC2(CC1)CC2CNC(=O)c1cc2ccncc2o1 (stereo not shown) [Example 296, N-[[6-(5-tert-butyl-2-methyl-pyrazole-3-carbonyl)-6-azaspiro[2.5]octan-2-yl]methyl]furo[2,3-c]pyridine-2-carboxamide] | 
11 | 278 | CCn1nccc1C(=O)N1CCC2(CC1)CC2CNC(=O)c1cc2ccncc2o1 (stereo not shown) [Example 297, N-[[6-(2-ethylpyrazole-3-carbonyl)-6-azaspiro[2.5]octan-2-yl]methyl]furo[2,3-c]pyridine-2-carboxamide] | 
12 | 103 | Cc1cnn(C(C)(C)C)c1C(=O)N1CCC2(CC1)CC2CNC(=O)c1cc2ccncc2o1 (stereo not shown) [Example 298, N-[[6-(2-tert-butyl-4-methyl-pyrazole-3-carbonyl)-6-azaspiro[2.5]octan-2-yl]methyl]furo[2,3-c]pyridine-2-carboxamide] | 
13 | 249 | Cc1cnn(C)c1C(=O)N1CCC2(CC1)CC2CNC(=O)c1cc2ccncc2o1 (stereo not shown) [Example 299, N-[[6-(2,4-dimethylpyrazole-3-carbonyl)-6-azaspiro[2.5]octan-2-yl]methyl]furo[2,3-c]pyridine-2-carboxamide] | 
14 | 90.3 | O=C(NCC1CC12CCN(C(=O)c1n[nH]c3ccccc13)CC2)c1cc2ccncc2o1 (stereo not shown) [Example 302, N-[[6-(1H-indazole-3-carbonyl)-6-azaspiro[2.5]octan-2-yl]methyl]furo(2,3-c]pyridine-2-carboxamide] | 
15 | 2000 | CC(C)N1CCC(n2cc(C(=O)N3CCC4(CC3)CC4CNC(=O)c3cc4ccncc4o3)cn2)C1 (stereo not shown) [Example 303, N-[[6-(1-(1-isopropylpyrrolidin-3-yl)pyrazole-4-carbonyl]-6-azaspiro[2.5]octan-2-yl]methyl]furo[2,3-c]pyridine-2-carboxamide] | 
16 | 61.2 | Cc1nn(C)cc1-c1cc(C(=O)N2CCC3(CC2)CC3CNC(=O)c2cc3ccncc3o2)no1 (stereo not shown) [Example 305, N-[[6-[5-(1,3-dimethylpyrazol-4-yl)isoxazole-3-carbonyl]-6-azaspiro[2.5]octan-2-yl]methyl]furo[2,3-c]pyridine-2-carboxamide] | 
17 | 38.8 | CC(C)(C)OC(=O)N1Cc2[nH]nc(C(=O)N3CCC4(CC3)CC4CNC(=O)c3cc4ccncc4o3)c2C1 (stereo not shown) [Example 306, tert-butyl 3-[2-[(furo[2,3-c]pyridine-2-carbonylamino)methyl]-6-azaspiro[2.5]octane-6-carbonyl]-4,6-dihydro-1H-pyrrolo[3,4-c]pyrazole-5-carboxylate] | 

Row | IC50 (A2780, 72 h) [nM] | Compound | IC50 [nM]
18 | 26.7 | CN1CCC(n2cc(C(=O)N3CCC4(CC3)CC4CNC(=O)c3cc4ccncc4o3)cn2)C1 (stereo not shown) [Example 307, N-[[6-[1-(1-methylpyrrolidin-3-yl)pyrazole-4-carbonyl]-6-azaspiro[2.5]octan-2-yl]methyl]furo[2,3-c]pyridine-2-carboxamide] | 
19 | 2000 | Cc1cc(C(=O)N2CCC3(CC2)CC3CNC(=O)c2cc3ccncc3o2)n(C(C)(C)C)n1 (stereo not shown) [Example 308, N-[[6-(2-tert-butyl-5-methyl-pyrazole-3-carbonyl)-6-azaspiro[2.5]octan-2-yl]methyl]furo[2,3-c]pyridine-2-carboxamide] | 
20 | 24.7 | Cc1nc2ccccn2c1C(=O)N1CCC2(CC1)CC2CNC(=O)c1cc2ccncc2o1 (stereo not shown) [Example 309, N-[[6-(2-methylimidazo[1,2-a]pyridine-3-carbonyl)-6-azaspiro[2.5]octan-2-yl]methyl]furo[2,3-c]pyridine-2-carboxamide] | 
21 | 30.8 | Cc1ccc2nc(C(=O)N3CCC4(CC3)CC4CNC(=O)c3cc4ccncc4o3)[nH]c2c1 (stereo not shown) [Example 310, N-[[6-(6-methyl-1H-benzimidazole-2-carbonyl)-6-azaspiro[2.5]octan-2-yl]methyl]furo[2,3-c]pyridine-2-carboxamide] | 
22 | 12.1 | Cc1cccc2nc(C(=O)N3CCC4(CC3)CC4CNC(=O)c3cc4ccncc4o3)cn12 (stereo not shown) [Example 311, N-[[6-(5-methylimidazo[1,2-a]pyridine-2-carbonyl)-6-azaspiro[2.5]octan-2-yl]methyl]furo[2,3-c]pyridine-2-carboxamide] | 
23 | 9.61 | O=C(NCC1CC12CCN(C(=O)c1n[nH]c3cc(F)ccc13)CC2)c1cc2ccncc2o1 (stereo not shown) [Example 312, N-[[6-(6-fluoro-1H-indazole-3-carbonyl)-6-azaspiro[2.5]octan-2-yl]methyl]furo[2,3-c]pyridine-2-carboxamide] | 
24 | 15.9 | O=C(NCC1CC12CCN(C(=O)c1cc3ncccn3n1)CC2)c1cc2ccncc2o1 (stereo not shown) [Example 313, N-[[6-(pyrazolo[1,5-a]pyrimidine-2-carbonyl)-6-azaspiro[2.5]octan-2-yl]methyl]furo[2,3-c]pyridine-2-carboxamide] | 
25 | 6.76 | CCn1nc(C)c(C(=O)N2CCC3(CC2)CC3CNC(=O)c2cc3ccncc3o2)c1C (stereo not shown) [Example 314, N-[[6-(1-ethyl-3,5-dimethyl-pyrazole-4-carbonyl)-6-azaspiro[2.5]octan-2-yl]methyl]furo[2,3-c]pyridine-2-carboxamide] | 
26 | 104 | Cc1ccc2nc(C(=O)N3CCC4(CC3)CC4CNC(=O)c3cc4ccncc4o3)cn2c1 (stereo not shown) [Example 315, N-[[6-(6-methylimidazo[1,2-a]pyridine-2-carbonyl)-6-azaspiro[2.5]octan-2-yl]methyl]furo[2,3-c]pyridine-2-carboxamide] | 
27 | 2000 | O=C(NCC1CC12CCN(C(=O)c1cnn3ccccc13)CC2)c1cc2ccncc2o1 (stereo not shown) [Example 316, N-[[6-(pyrazolo[1,5-a]pyridine-3-carbonyl)-6-azaspiro[2.5]octan-2-yl]methyl]furo[2,3-c]pyridine-2-carboxamide] | 
28 | 2000 | CC(C)c1oncc1C(=O)N1CCC2(CC1)CC2CNC(=O)c1cc2ccncc2o1 (stereo not shown) [Example 318, N-[[6-(5-isopropylisoxazole-4-carbonyl)-6-azaspiro[2.5]octan-2-yl]methyl]furo[2,3-c]pyridine-2-carboxamide] | 
29 | 55 | CC(C)Cc1cc(C(=O)N2CCC3(CC2)CC3CNC(=O)c2cc3ccncc3o2)[nH]n1 (stereo not shown) [Example 319, N-[[6-(3-isobutyl-1H-pyrazole-5-carbonyl)-6-azaspiro[2.5]octan-2-yl]methyl]furo[2,3-c]pyridine-2-carboxamide] | 
30 | 549 | O=C(NCC1CC12CCN(C(=O)c1cn3cccnc3n1)CC2)c1cc2ccncc2o1 (stereo not shown) [Example 320, N-[[6-(imidazo[1,2-a]pyrimidine-2-carbonyl)-6-azaspiro[2.5]octan-2-yl]methyl]furo[2,3-c]pyridine-2-carboxamide] | 
31 | 2000 | O=C(NCC1CC12CCN(C(=O)c1cnn3cccnc13)CC2)c1cc2ccncc2o1 (stereo not shown) [Example 321, N-[[6-(pyrazolo[1,5-a]pyrimidine-3-carbonyl)-6-azaspiro[2.5]oclan-2-yl]methyl]furo[2,3-c]pyridine-2-carboxamide] | 
32 | 15.1 | CC(C)(C)c1cc(C(=O)N2CCC3(CC2)CC3CNC(=O)c2cc3ccncc3o2)[nH]n1 (stereo not shown) [Example 322, N-[[6-(3-tert-butyl-1H-pyrazole-5-carbonyl)-6-azaspiro[2.5]octan-2-yl]methyl]furo[2,3-c]pyridine-2-carboxamide] | 
33 | 2000 | CC(C)c1cc(C(=O)N2CCC3(CC2)CC3CNC(=O)c2cc3ccncc3o2)n[nH]1 (stereo not shown) [Example 323, N-[[6-(5-isopropyl-1H-pyrazole-3-carbonyl)-6-azaspiro[2.5]octan-2-yl]methyl]furo[2,3-c]pyridine-2-carboxamide] | 
34 | 109 | CC(C)c1n[nH]cc1C(=O)N1CCC2(CC1)CC2CNC(=O)c1cc2ccncc2o1 (stereo not shown) [Example 324, N-[[6-(3-isopropyl-1H-pyrazole-4-carbonyl)-6-azaspiro[2.5]octan-2-yl]methyl]furo[2,3-c]pyridine-2-carboxamide] | 

From US10730889B2, “Amido spirocyclic amide and sulfonamide derivatives” (Forma TM, LLC, priority 2012, dated 2020)
